Reference: patent publication US8809232B2, “Herbicidal compositions comprising 4-amino-3-chloro-5-fluoro-6-(4-chloro-2-fluoro-3-methoxyphenyl) pyridine-2-carboxylic acid or a derivative thereof and halosulfuron, pyrazosulfuron and esprocarb” (Dow Agrosciences LLC, priority 2012, dated 2014)

Columns and labels:
[1] = test system: BRAPP; assay: Post-emergence foliar-applied herbicidal mixtures, greenhouse, direct seeded rice weeds; format: in vivo
Description: (§1) Seeds or nutlets of the desired test plant species were planted in a soil matrix prepared by mixing a loam or sandy loam soil (e.g., 28.6 percent silt, 18.8 percent clay, and 52.6 percent sand, with a pH of about 5.8 and an organic matter content of about 1.8 percent) and calcareous grit in an 80 to 20 ratio. The soil matrix was contained in plastic pots with a volume of 1 quart and a surface area of 83.6 square centimeters (cm^2). When required to ensure good germination and healthy plants, a fungicide treatment and/or other chemical or physical treatment was applied. The plants were grown for 8-22 days in a greenhouse with an approximate 14 hr photoperiod which was maintained at about 29° C. during the day and 26° C. during the night. Nutrients (Peters Excel® 15-5-15 5-Ca 2-Mg and iron chelate) were applied in the irrigation solution as needed and water was added on a regular basis. Supplemental lighting was provided with overhead metal halide 1000-Watt lamps as necessary. The plants were employed for testing when they reached the first through fourth true leaf stage.
(§2) Treatments consisted of the acid or esters of 4-amino-3-chloro-5-fluoro-6-(4-chloro-2-fluoro-3-methoxy-phenyl)pyridine-2-carboxylic acid (Compound A), each formulated as an SC (suspension concentrate), and various herbicidal components alone and in combination. Forms of compound A were applied on an acid equivalent basis.
(§3) Other herbicidal components were applied on an active ingredient basis and included the acetolactate synthase (ALS)-inhibiting herbicides halosulfuron-methyl formulated as Permit® 75 WDG, pyrazosulfuron-ethyl formulated as Agreen® WG or Sirius® G, and the VLCFA inhibiting herbicide esprocarb (technical grade material).
(§4) Treatment requirements were calculated based upon the rates being tested, the concentration of active ingredient or acid equivalent in the formulation, and a 12 mL application volume at a rate of 187 L/ha.
(§5) For treatments comprised of formulated compounds, measured amounts of compounds were placed individually in 25 mL glass vials and diluted in a volume of 1.25% (v/v) Agri-Dex® crop oil concentrated to obtain 12× stock solutions. […] Application solutions were prepared by adding an appropriate amount of each stock solution (e.g., 1 mL) and diluted to the appropriate final concentrations with the addition of 10 mL of an aqueous mixture of 1.25% (v/v) crop oil concentrate so that the final spray solutions contained 1.25+/−0.05% (v/v) crop oil concentrate.
(§6) For treatments comprised of technical compounds, weighed amounts can be placed individually in 25 mL glass vials and dissolved in a volume of 97:3 v/v acetone/DMSO to obtain 12× stock solutions. […] Application solutions can be prepared by adding an appropriate amount of each stock solution (e.g., 1 mL) and diluted to the appropriate final concentrations with the addition of 10 mL of an aqueous mixture of 1.5% (v/v) crop oil concentrate so that the final spray solutions contain 1.25% (v/v) crop oil concentrate. When technical materials are used, the concentrated stock solutions can be added to the spray solutions so that the final acetone and DMSO concentrations of the application solutions are 16.2% and 0.5%, respectively.
(§7) For treatments comprised of formulated and technical compounds, weighed amounts of the technical materials were placed individually in 25 mL glass vials and dissolved in a volume of 97:3 v/v acetone/DMSO to obtain 12× stock solutions, and measured amounts of the formulated compounds were placed individually in 25 mL glass vials and diluted in a volume of 1.5% (v/v) crop oil concentrate or water to obtain 12× stock solutions. […] Application solutions were prepared by adding an appropriate amount of each stock solution (e.g., 1 mL) and diluted to the appropriate final concentrations with the addition of an appropriate amount of an aqueous mixture of 1.5% (v/v) crop oil concentrate so that the final spray solutions contained 1.25% (v/v) crop oil concentrate. […]

[2] = test system: DIGSA; assay: as above; format: in vivo, Digitaria sanguinalis (L.) Scop.
Description: as §1, §2, §3, §4, §5, §6, §7

[3] = test system: ECHOR; assay: In-water applied herbicidal mixtures, greenhouse, transplanted paddy rice weeds; format: in vivo, Echinochloa oryzoides (Ard.) Fritsch
Description: (§8) Weed seeds or nutlets of the desired test plant species were planted in puddled soil (mud) prepared by mixing a shredded, non-sterilized mineral soil (50.5 percent silt, 25.5 percent clay, and 24 percent sand, with a pH of about 7.6 and an organic matter content of about 2.9 percent) and water at a 1:1 volumetric ratio. The prepared mud was dispensed in 365 mL aliquots into 16-ounce (oz.) non-perforated plastic pots with a surface area of 86.59 square centimeters (cm^2) leaving a headspace of 3 centimeters (cm) in each pot Mud was allowed to dry overnight prior to planting or transplanting. Rice seeds were planted in Sun Gro MetroMix® 306 planting mixture, which typically has a pH of 6.0 to 6.8 and an organic matter content of about 30 percent, in plastic plug trays. Seedlings at the second or third leaf stage of growth were transplanted into 840 mL of mud contained in 32-oz. non-perforated plastic pots with a surface area of 86.59 cm^2 4 days prior to herbicide application. The paddy was created by filling the headspace of the pots with 2.5 to 3 cm of water. When required to ensure good germination and healthy plants, a fungicide treatment and/or other chemical or physical treatment was applied. The plants were grown for 4-22 days in a greenhouse with an approximate 14 hr photoperiod which was maintained at about 29′C during the day and 26° C. during the night. Nutrients were added as Osmocote® (19:6:12, N:P:K^+ minor nutrients) at 2 g per 16-oz. pot and 4 g per 32-oz. pot. Water was added on a regular basis to maintain the paddy flood, and supplemental lighting was provided with overhead metal halide 1000-Watt lamps as necessary. The plants were employed for testing when they reached the first through fourth true leaf stage.
as §2, with “(compound A)” for “(Compound A),”, “concentrate)” for “concentrate),”
(§9) Other herbicidal components were applied on an active ingredient basis and included acetolactate synthase (ALS)-inhibiting herbicides formulated as Permit® 75 WDG, pyrazosulfuron-ethyl formulated as Agreen® WG or Sirius® G, and VLCFA inhibiting herbicide esprocarb (technical grade material).
(§10) Treatment requirements for each compound or herbicidal component were calculated based upon the rates being tested, the concentration of active ingredient or acid equivalent in the formulation, an application volume of 2 mL per component per pot, and an application area of 86.59 cm^2 per pot.
(§11) For formulated compounds, a measured amount was placed in an individual 100 or 200 mL glass vial and was dissolved in a volume of 1.25% (v/v) Agri-Dex® crop oil concentrate to obtain application solutions.
(§12) For technical grade compounds, a weighed amount was placed in an individual 100 to 200 mL glass vial and was dissolved in a volume of acetone to obtain concentrated stock solutions. […] The concentrated stock solutions obtained were diluted with an equivalent volume of an aqueous mixture containing 2.5% (v/v) crop oil concentrate so that the final application solutions contained 1.25% (v/v) crop oil concentrate.
(§13) Applications were made by injecting with a pipetter appropriate amounts of the application solutions, individually and sequentially, into the aqueous layer of the paddy. Control plants were treated in the same manner with the solvent blank. Applications were made so that all treated plant material received the same concentrations of acetone and crop oil concentrate.
(§14) The treated plants and control plants were placed in a greenhouse as described above and water was added as needed to maintain a paddy flood. […]

[4] = test system: SCPMA; assay: as above; format: in vivo
Description: as §8
as §2, with “(compound A)” for “(Compound A),”, “concentrate)” for “concentrate),”
as §9, §10, §11, §12, §13, §14

[5] = test system: LEFCH; assay: as above; format: in vivo, Leptochloa chinensis (L.) Nees
Description: as §8, with “Water was added on a regular basis to maintain the paddy flood, and supplemental lighting was provided with overhead metal halide 1000-Watt lamps as necessary. The plants were employed for testing when they reached the first through fourth true leaf stage.” left out
as §10
(§15) For formulated compounds, a measured amount was placed in an individual 100 or 200 mL glass vial and was dissolved in a volume of 1.25% (v/v) Agri-Dex® crop oil concentrate to obtain application solutions. […]

[6] = test system: ECHCO; assay: Post-emergence foliar-applied herbicidal mixtures, greenhouse, direct seeded rice weeds; format: in vivo, Echinochloa colona (L.) Link
Description: as §1, with “stage. […]” for “stage.”
as §4
For treatments comprised of formulated compounds, measured amounts of compounds were placed individually in 25 mL glass vials and diluted in a volume of 1.25% (v/v) Agri-Dex® crop oil concentrated to obtain 12× stock solutions. […]
For treatments comprised of formulated and technical compounds, weighed amounts of the technical materials were placed individually in 25 mL glass vials and dissolved in a volume of 97:3 v/v acetone/DMSO to obtain 12× stock solutions, and measured amounts of the formulated compounds were placed individually in 25 mL glass vials and diluted in a volume of 1.5% (v/v) crop oil concentrate or water to obtain 12× stock solutions. […]

[7] = test system: ECHCG; assay: In-water applied herbicidal mixtures, greenhouse, transplanted paddy rice weeds; format: in vivo, Echinochloa crus-galli (L.) Beauv.
Description: as §8, with “Water was added on a regular basis to maintain the paddy flood, and supplemental lighting was provided with overhead metal halide 1000-Watt lamps as necessary. The plants were employed for testing when they reached the first through fourth true leaf stage.” left out
as §10, §15

[8] = test system: CYPRO; assay: as above; format: in vivo, Cyperus rotundus L.
Description: as §8
as §2, with “(compound A)” for “(Compound A),”, “concentrate)” for “concentrate),”
as §9, §10, §11, §12, §13, §14

[9] = test system: FIMMI; assay: as above; format: in vivo, Fimbristylis miliacea (L.) Vahl
Description: as §8
as §2, with “(compound A)” for “(Compound A),”, “concentrate)” for “concentrate),”
as §9, §10, §11, §12
Applications were made by injecting with a pipetter appropriate amounts of the application solutions, individually and sequentially, into the aqueous layer of the paddy. […]

[10] = test system: SCPJU; assay: as above; format: in vivo, Schoenoplectus juncoides (Roxb.) Palla
Description: as §8
as §2, with “(compound A)” for “(Compound A),”, “concentrate)” for “concentrate),”, “basis. […]” for “basis.”
as §10, §15

In the case of CCOC(=O)c1cnn(C)c1S(=O)(=O)NC(=O)Nc1nc(OC)cc(OC)n1 [Pyrazosulfuron-ethyl, ethyl 5-[[[[(4,6-dimethoxy-2-pyrimidinyl)amino]carbonyl]amino]sulfonyl]-1-methyl-1H-pyrazole-4-carboxylate, reference compound], the “Visual Weed Control (%) - 21 DAA BRAPP Obs” value ([1]; 15 g ai/ha (Agreen WG)) is reported as 0%, the “Visual Weed Control (%) - 21 DAA BRAPP Obs” value ([1]; 30 g ai/ha (Agreen WG)) is reported as 0% and the “Visual Weed Control (%) - 21 DAA BRAPP Obs” value ([1]; 60 g ai/ha (Agreen WG)) is reported as 10%. The “Visual Weed Control (%) - 20 DAA DIGSA Obs” value ([2]; 120 g ai/ha (Agreen WG)) was 23%, the “Visual Weed Control (%) - 21 DAA DIGSA Obs” value ([2]; 120 g ai/ha (Agreen WG)) was 23% and the “Visual Weed Control (%) - 22 DAA ECHOR Obs” value ([3]; 17.5 g ai/ha (Sirius G)) was 0%. For the same compound, the “Visual Weed Control (%) - 22 DAA ECHOR Obs” value ([3]; 35 g ai/ha (Sirius G)) was 0%, the “Visual Weed Control (%) - 20 DAA ECHOR Obs” value ([3]; 70 g ai/ha (Sirius G)) was 70% and the “Visual Weed Control (%) - 22 DAA SCPMA Obs” value ([4]; 17.5 g ai/ha (Sirius G)) was 80%. For the same compound, the “Visual Weed Control (%) - 22 DAA SCPMA Obs” value ([4]; 35 g ai/ha (Sirius G)) was 70%, the “Visual Weed Control (%) - 22 DAA LEFCH Obs” value ([5]; 17.5 g ai/ha (Sirius G)) was 0% and the “Visual Weed Control (%) - 22 DAA LEFCH Obs” value ([5]; 35 g ai/ha (Sirius G)) was 0%.

With COc1c(Cl)ccc(-c2nc(C(=O)O)c(Cl)c(N)c2F)c1F [Compound A Acid, 4-amino-3-chloro-5-fluoro-6-(4-chloro-2-fluoro-3-methoxy-phenyl)pyridine-2-carboxylic acid] the “Visual Weed Control (%) - 20 DAA BRAPP Obs” value ([1]; 4.38 g ae/ha) was 50%, the “Visual Weed Control (%) - 22 DAA BRAPP Obs” value ([1]; 4.38 g ae/ha) was 45% and the “Visual Weed Control (%) - 20 DAA DIGSA Obs” value ([2]; 21.2 g ae/ha) was 10%. For the same compound, the “Visual Weed Control (%) - 20 DAA DIGSA Obs” value ([2]; 42.4 g ae/ha) was 25%, the “Visual Weed Control (%) - 22 DAA ECHCO Obs” value ([6]; 4.38 g ae/ha) was 65% and the “Visual Weed Control (%) - 22 DAA ECHCO Obs” value ([6]; 8.75 g ae/ha) was 80%. For the same compound, the “Visual Weed Control (%) - 22 DAA ECHOR Obs” value ([3]; 8.75 g ae/ha) was 0%, the “Visual Weed Control (%) - 22 DAA ECHOR Obs” value ([3]; 17.5 g ae/ha) was 0% and the “Visual Weed Control (%) - 22 DAA ECHOR Obs” value ([3]; 35 g ae/ha) was 20%. The “Visual Weed Control (%) - 20 DAA ECHOR Obs” value ([3]; 42.4 g ae/ha) was 18%, the “Visual Weed Control (%) - 20 DAA ECHOR Obs” value ([3]; 84.8 g ae/ha) was 33% and the “Visual Weed Control (%) - 22 DAA SCPMA Obs” value ([4]; 8.75 g ae/ha) was 0%. The “Visual Weed Control (%) - 22 DAA SCPMA Obs” value ([4]; 17.5 g ae/ha) was 0%, the “Visual Weed Control (%) - 22 DAA SCPMA Obs” value ([4]; 35 g ae/ha) was 0% and the “Visual Weed Control (%) - 20 DAA SCPMA Obs” value ([4]; 42.4 g ae/ha) was 0%. For the same compound, the “Visual Weed Control (%) - 20 DAA SCPMA Obs” value ([4]; 84.8 g ae/ha) was 0%, the “Visual Weed Control (%) - 21 DAA ECHCG Obs” value ([7]; 8.75 g ae/ha) was 0% and the “Visual Weed Control (%) - 21 DAA ECHCG Obs” value ([7]; 17.5 g ae/ha) was 30%. The “Visual Weed Control (%) - 21 DAA CYPRO Obs” value ([8]; 8.75 g ae/ha) was 30%, the “Visual Weed Control (%) - 21 DAA CYPRO Obs” value ([8]; 17.5 g ae/ha) was 50% and the “Visual Weed Control (%) - 21 DAA CYPRO Obs” value ([8]; 35 g ae/ha) was 65%. For the same compound, the “Visual Weed Control (%) - 21 DAA FIMMI Obs” value ([9]; 8.75 g ae/ha) was 0%, the “Visual Weed Control (%) - 21 DAA FIMMI Obs” value ([9]; 17.5 g ae/ha) was 95% and the “Visual Weed Control (%) - 21 DAA SCPJU Obs” value ([10]; 8.75 g ae/ha) was 40%. For the same compound, the “Visual Weed Control (%) - 21 DAA SCPJU Obs” value ([10]; 17.5 g ae/ha) was 60%.
